Measurements as given in publication PMC9057948, “Identification, isolation, structural characterization, in silico toxicity prediction and in vitro cytotoxicity assay of simeprevir acidic and oxidative degradation products” (RSC Advances, 2020).
Where two headings read alike, the source gives them in different places.

Assays:
[1] = tested on: Human Skin Fibroblast (HSF) cell line; assay: SRB cytotoxicity (cell viability) assay; assay type: cell-based; conditions: Homo sapiens; HSF cells, SRB assay, 72 h exposure, 0.01–100 μM
Experimental: (§1) Human Skin Fibroblast cell line was obtained from Nawah Scientific Inc., (Mokatam, Cairo, Egypt). Cells were maintained in DMEM media supplemented with […] of streptomycin, 100 units per mL of penicillin and 10% of heat-inactivated fetal bovine serum in humidified, 5% (v/v) CO2 atmosphere at 37 °C.
(§2) Absorbance was measured in the cytotoxicity assay at 540 nm on a BMG LABTECH®-FLUOstar Omega microplate reader (Ortenberg, Germany).
(§3) Cell viability was assessed by SRB assay.[25] Aliquots of 100 μL cell suspension (5 × 10^3 cells) were in 96-well plates and incubated in complete media for 24 h. Cells were treated with another aliquot of 100 μL media containing (DP 1, DP 2, DP 3, DP 4, DP 5 and Doxorubicin as positive control) at various concentrations ranging from (0.01, 0.1, 1, 10, 100 μm). After 72 h of drug exposure, cells were fixed by replacing media with 150 μL of 10% TCA and incubated at 4 °C for 1 h. The TCA solution was removed, and the cells were washed 5 times with distilled water. Aliquots of 70 μL SRB solution (0.4% w/v) were added and incubated in a dark place at room temperature for 10 min. Plates were washed 3 times with 1% acetic acid and allowed to air-dry overnight. Then, 150 μL of Tris (10 mM) was added to dissolve protein-bound SRB stain; the absorbance was measured at 540 nm using microplate reader. The percentage of cell viability was calculated by using the following formula:[26] [drawing 1]
(§4) Cytotoxicity assay was carried out to confirm the in silico toxicity prediction study results. As an in vitro method to monitor the potential toxicity and/or safety of simeprevir and its degradation products (DP 1, DP 2, DP 3, DP 4 and DP 5), against Human Skin Fibroblast (HSF) cell line. SRB assay was used to assess the effect of these compounds on the viability and proliferation of HSF cell line (Table S1 ^†), in addition to taking images using the optical microscope to register any change on the tested cells.
(§5) The percentage of cell viability was measured at five different concentrations (0.01, 0.1, 1, 10 and 100 μM) in comparison with doxorubicin as a standard drug (positive control) which is monitored at the same concentration range after incubation for 72 h period.

[2] = SRB cytotoxicity (cell viability) assay; assay type: cell-based, Human; conditions: human, Human Skin Fibroblast (HSF) cells; for viability at 72 h, 0.01 µM / viability at 72 h, 0.1 µM / viability at 72 h, 1 µM / viability at 72 h, 10 µM: n = 3
Experimental: as §1, §2, §3, §4, §5

[3] = tested on: Human Skin Fibroblast (HSF) cell line; assay: Optical microscope stained images of the cytotoxicity assay; assay type: cell-based; conditions: HSF cells, magnification 200×
Experimental: as §4
The optical microscope stained images were recorded as shown in Fig. 7 comparing the cytotoxic effect of the five degradation products with that of doxorubicin at a concentration of 100 μM. […] This proves that simeprevir acidic and oxidative degradation products are non-toxic up to 100 μM (IC50 > 100 μM).

[4] = no reference given; cited from earlier work
[5] = cited from earlier work
[6] = Forced degradation study (stress degradation, HPLC); assay type: physicochemical
Experimental: The forced degradation studies were carried out on 1 mg mL^−1 in methanol. Acidic hydrolysis was performed by treating the drug with 0.5 M hydrochloric acid for 5 hours, while the basic hydrolysis conditions were 1 M sodium hydroxide for 5 hours. In both cases, the reaction was immersed in a boiling water bath maintained at 100 °C.
Oxidative degradation was performed by treating the drug with 3% hydrogen peroxide for 5 hours and the reaction was immersed in a boiling water bath maintained at 100 °C. In the thermal degradation, simeprevir was subjected to high temperature by placing the drug in a thermostatic oven at 100 °C.
The samples from the acidic and basic hydrolysis stress tests were neutralized and diluted with methanol to achieve final assay concentrations of 100 μg mL^−1. The final sample solutions were filtered through a 0.45 μm membrane before HPLC analysis. All sample solutions were stored at 4 °C in a refrigerator to avoid degradation.
Although, previous reports by Attia et al.[18] and Mohammed et al.[27] uses different basic hydrolysis conditions; 0.1 N NaOH for 3 hours at room temperature and 1 M NaOH for 2 hours at 60 °C; respectively. […] In our report, no peak was observed after HPLC injection of the alkaline degradation samples which is confirmed using TLC and Flash Chromatography; in which only drug peak was detected.

[7] = 72 h, n = 3, read-out: Viability % (Mean)

Row | SMILES | IC50 [1] [µM] | viability at 72 h, 0.01 µM ([2]; 72 h) [%] | viability at 72 h, 0.1 µM ([2]; 72 h) [%] | viability at 72 h, 1 µM ([2]; 72 h) [%] | viability at 72 h, 10 µM ([2]; 72 h) [%] | viability at 72 h, 100 µM [2, 7] [%] | viability at 72 h, 100 µM ([2]; single replicate, read-out: cell viability in one of the replicates) [%] | morphological changes ([3]; 100 μM) | morphological changes ([3]; 0.1 μM) | pKa [4] | degradation percentage, basic hydrolysis ([5]; 0.1 N NaOH for 3 hours at room temperature, ref 18 (Attia et al.)) [%] | degradation percentage, basic hydrolysis ([5]; 1 M NaOH for 2 hours at 60 °C, ref 27 (Mohammed et al.)) [%] | % Degradation, acidic degradation ([6]; 0.5 M HCl at 100 °C, 5 hours) [%] | % Degradation, alkaline degradation ([6]; 1 M NaOH at 100 °C, 5 hours) | % Degradation, oxidative degradation ([6]; 3% w/v H2O2 at 100 °C, 5 hours) [%] | % Degradation, thermal degradation ([6]; Oven at 100 °C, 10 hours)
1 | COc1ccc2c(OC3C[C@H]4C(=O)OC(=O)[C@@H]4C3)cc(-c3nc(C(C)C)cs3)nc2c1C [DP 1] | > 100 | 98.7 | 96.5 | 95.6 | 95.2 | 92.9 | – | – | – | – | – | – | – | – | – | –
2 | COc1ccc2c(OC3CC4C(=O)NC5CC5C=CCCCCN(C)C(=O)C4C3)cc(-c3nc(C(C)C)cs3)nc2c1C (stereo not shown) [DP 2] | > 100 | 98.5 | 98.5 | 97.4 | 97.1 | 95.6 | – | – | – | – | – | – | – | – | – | –
3 | CN1CCCCC=CC2CC2(C(=O)NS(=O)(=O)C2CC2)NC(=O)C2CC(O)CC2C1=O (stereo not shown) [DP 3] | > 100 | 97.7 | 97.6 | 93.4 | 91.1 | 90.9 | 89.9 | slight changes | – | – | – | – | – | – | – | –
4 | COc1ccc2ccc(-c3scc(C(C)C)[n+]3[O-])[n+]([O-])c2c1CO [DP 4] | > 100 | 96.1 | 93.9 | 93.1 | 92.1 | 92.7 | – | – | – | – | – | – | – | – | – | –
5 | COc1ccc2ccc(-c3scc(C(C)C)[n+]3[O-])[n+]([O-])c2c1C [DP 5] | > 100 | 96.3 | 96.8 | 93.7 | 93 | 92.5 | – | – | – | – | – | – | – | – | – | –
6 | COc1cccc2c1C(=O)c1c(O)c3c(c(O)c1C2=O)C[C@@](O)(C(=O)CO)C[C@@H]3O[C@H]1C[C@H](N)[C@H](O)[C@H](C)O1 [Doxorubicin, reference compound] | 1.4 | 99.5 | 98.4 | 59.9 | 15.5 | 3.29 | – | – | no occurrence of morphological changes | – | – | – | – | – | – | –
7 | COc1ccc2c(O[C@@H]3C[C@H]4C(=O)N[C@]5(C(=O)NS(=O)(=O)C6CC6)C[C@H]5/C=C\CCCCN(C)C(=O)[C@@H]4C3)cc(-c3nc(C(C)C)cs3)nc2c1C [Simeprevir] | – | – | – | – | – | – | – | – | – | 5.9 | 35.55 | 39.80 | 26.63 | No degradation | 21.87 | No degradation
